Columns and labels:
normal liver organoids = assay: Viability of normal liver organoids treated with the drug (cytotoxicity); format: cell-based, human
Procedure: Also, when the viability of the normal liver organoids treated with the drug was analyzed to evaluate the cytotoxicity depending on the concentration of the drug, it was confirmed that the viability was 80% or more at 1 μM, 70% at 10 μM, and about 60% at 100 μM (FIG. 15B). That is, it was confirmed that liver toxicity increased as the treatment concentration of OCA increased.
(§1) Also, when the viability of the normal liver organoids treated with the drug was analyzed to evaluate the cytotoxicity depending on the concentration of the drug, it was confirmed that the viability was 70% or more at 1 μM to 10 μM and about 50% at 100 μM (FIG. 16B).
as §1, with “not affected at a concentration of up to 1 μM, and it was 80%” for “70%”, “at” for “at 1 μM to”, “60%” for “50%”, “17B).” for “16B).”

[1] = system: human tissue-derived non-alcoholic steatohepatitis (NASH) liver organoids; assay: Drug efficacy evaluation in human tissue-derived NASH liver organoids co-cultured with EC, KC and HSC in LEM-Chip; format: cell-based
Description: (§2) Steatohepatitis (NASH) was induced in liver organoids in which a liver tissue microenvironment [vascular endothelial cells (E)+Kupffer cells (K)+hepatic stellate cells (S)] was constructed under culture conditions in which the decellularized liver tissue-derived LEM scaffold and the multiwell microfluidic device were combined, followed by treatment with obeticholic acid (OCA) at different concentrations. OCA (Obeticholic acid) is a semi-synthetic bile acid analogue that has conventionally been used to treat cholangitis and is a drug candidate whose efficacy has recently been verified in non-alcoholic steatohepatitis clinical trials. The NASH group was treated with 800 μM fatty acid for 3 days to induce a disease, and the NASH+OCA group was treated with 800 μM fatty acid and the corresponding drug for 3 days at different concentrations.
as §2, with “ezetimibe (Eze)” for “obeticholic acid (OCA)”, “Eze (Ezetimibe)” for “OCA (Obeticholic acid)”, “cholesterol absorption inhibitor and is a drug candidate” for “semi-synthetic bile acid analogue”, “hyperglycemic cholesterol” for “cholangitis”, “lipid abnormalities.” for “is a drug candidate whose efficacy has recently been verified in non-alcoholic steatohepatitis clinical trials.”, “NASH+Eze” for “NASH+OCA”
as §2, with “dapagliflozin (DAPA)” for “obeticholic acid (OCA)”, “DAPA (Dapagliflozin)” for “OCA (Obeticholic acid)”, “sodium-glucose transporter inhibitor and is a drug candidate” for “semi-synthetic bile acid analogue”, “diabetes.” for “cholangitis and is a drug candidate whose efficacy has recently been verified in non-alcoholic steatohepatitis clinical trials.”, “NASH+DAPA” for “NASH+OCA”

[2] = 800 μM fatty acid + drug for 3 days at different concentrations
[3] = drug concentration of 10 μM or more

Compound | viability of the normal liver organoids (normal liver organoids; 1 μM to 10 μM drug) [%] | viability of the normal liver organoids (normal liver organoids; 100 μM drug) | amount of fat accumulation [1, 2] | morphology and structure of the organoid [1, 2] | expression of the fibrosis marker, quantitative PCR [1, 3] | expression of the inflammation marker, quantitative PCR [1, 3] | expression of fibrosis-related marker (SMA), quantitative PCR ([1]; vs NASH group, 3 days) | expression of inflammation-related marker (TNFα), quantitative PCR ([1]; vs NASH group, 3 days) | viability of the normal liver organoids (normal liver organoids; 1 μM drug) [%] | viability of the normal liver organoids (normal liver organoids; 10 μM drug) [%] | liver toxicity (normal liver organoids; as the treatment concentration increased) | viability of the normal liver organoids (normal liver organoids; concentration of up to 1 μM)
O=C1[C@H](CC[C@H](O)c2ccc(F)cc2)[C@@H](c2ccc(O)cc2)N1c1ccc(F)cc1 [Eze, ezetimibe] | ≥ 70 | about 50% | reduced as the concentration increased | recovered | decreased to a level similar to that in the normal organoid | decreased to a level similar to that in the normal organoid | decreased | decreased |  |  |  | 
CC[C@H]1[C@@H](O)[C@@H]2[C@H](CC[C@]3(C)[C@@H]([C@H](C)CCC(=O)O)CC[C@@H]23)[C@@]2(C)CC[C@@H](O)C[C@@H]12 [OCA, obeticholic acid] |  | about 60% |  |  |  |  |  |  | ≥ 80 | 70 | increased | 
CCOc1ccc(Cc2cc([C@@H]3O[C@H](CO)[C@@H](O)[C@H](O)[C@H]3O)ccc2Cl)cc1 [DAPA, dapagliflozin] |  | about 60% |  |  |  |  |  |  |  | ≥ 80 |  | not affected
